PubChem BioAssay AID1259407 (Chemical Carcinogenesis Research Information System (CCRIS), 2018)
Activity calls are given as the source filed them. The rule behind the calls is not given here.

Test system: CCRIS mutagenicity, Ames/micronucleus/aberration tests
Experiment: CCRIS mutagenicity studies
[1] = Test System: AMES SALMONELLA TYPHIMURIUM, Strain/Indicator: TA98, Metabolic Activation: NONE, Method: STANDARD PLATE
[2] = Test System: AMES SALMONELLA TYPHIMURIUM, Strain/Indicator: TA100, Metabolic Activation: NONE, Method: STANDARD PLATE

Structure (SMILES) | mutagenic call [1] | mutagenic call (Test System: AMES SALMONELLA TYPHIMURIUM, Strain/Indicator: TA98, Metabolic Activation: S-9, Method: STANDARD PLATE) | mutagenic call [2] | mutagenic call (Test System: AMES SALMONELLA TYPHIMURIUM, Strain/Indicator: TA100, Metabolic Activation: S-9, Method: STANDARD PLATE) | mutagenic call (Test System: AMES SALMONELLA TYPHIMURIUM, Strain/Indicator: TA1538, Metabolic Activation: NONE, Method: STANDARD PLATE) | mutagenic call (Test System: AMES SALMONELLA TYPHIMURIUM, Strain/Indicator: TA100, Metabolic Activation: HAMSTER, LIVER, S-9, Method: PREINCUBATION) | mutagenic call (Test System: AMES SALMONELLA TYPHIMURIUM, Strain/Indicator: TA100, Metabolic Activation: HUMAN, LIVER, S-9, Method: PREINCUBATION) | mutagenic call (Test System: AMES SALMONELLA TYPHIMURIUM, Strain/Indicator: TA100, Metabolic Activation: PIG, LIVER, S-9, Method: PREINCUBATION) | mutagenic call (Test System: AMES SALMONELLA TYPHIMURIUM, Strain/Indicator: TA100, Metabolic Activation: RAT, LIVER, S-9, Method: PREINCUBATION) | mutagenic call (Test System: AMES SALMONELLA TYPHIMURIUM, Strain/Indicator: TA98, Metabolic Activation: RAT LIVER S-9, AROCLOR 1254, Method: STANDARD PLATE) | mutagenic call (Test System: AMES SALMONELLA TYPHIMURIUM, Strain/Indicator: TA98, Metabolic Activation: RAT, LIVER, S-9, AROCLOR 1254, Method: STANDARD PLATE) | mutagenic call (Test System: AMES SALMONELLA TYPHIMURIUM, Strain/Indicator: TA100, Metabolic Activation: RAT LIVER S-9, AROCLOR 1254, Method: STANDARD PLATE) | mutagenic call (Test System: AMES SALMONELLA TYPHIMURIUM, Strain/Indicator: TA100, Metabolic Activation: RAT, LIVER, S-9, AROCLOR 1254, Method: STANDARD PLATE) | mutagenic call (Test System: Ames Salmonella typhimurium, Strain/Indicator: TA97, Metabolic Activation: None, Method: Standard plate) | mutagenic call (Test System: Ames Salmonella typhimurium, Strain/Indicator: TA97, Metabolic Activation: Rat, Liver, S-9, Aroclor 1254 (10%), Method: Standard plate) | mutagenic call (Test System: Ames Salmonella typhimurium, Strain/Indicator: TA102, Metabolic Activation: None, Method: Standard plate) | mutagenic call (Test System: Ames Salmonella typhimurium, Strain/Indicator: TA102, Metabolic Activation: Rat, Liver, S-9, Aroclor 1254 (10%), Method: Standard plate) | mutagenic call (Test System: Ames Salmonella typhimurium, Strain/Indicator: TA104, Metabolic Activation: None, Method: Standard plate) | mutagenic call (Test System: Ames Salmonella typhimurium, Strain/Indicator: TA104, Metabolic Activation: Rat, Liver, S-9, Aroclor 1254 (10%), Method: Standard plate) | mutagenic call (Test System: E. COLI, Strain/Indicator: ND-160, Metabolic Activation: NONE, Method: STANDARD PLATE)
O=Nc1ccc2ccccc2c1 | active; positive | active; positive | active; positive | active; positive | active; positive | – | – | – | – | – | – | – | – | – | – | – | – | – | – | –
CCN(C)N=O | – | – | – | – | – | active; positive | inactive; negative | inactive; negative | inactive; negative | – | – | – | – | – | – | – | – | – | – | –
COc1cc(O)c2c(=O)oc3cc(O)cc(C)c3c2c1 | inactive; negative | – | inactive; negative | – | – | – | – | – | – | inactive; negative | inactive; negative | inactive; negative | inactive; negative | inactive; negative. nitrosation did not increase mutagenicity | inactive; negative. nitrosation did not increase mutagenicity | inactive; negative. nitrosation did not increase mutagenicity | inactive; negative. nitrosation did not increase mutagenicity | inactive; negative. nitrosation did not increase mutagenicity | inactive; negative. nitrosation did not increase mutagenicity | active; positive
